# Test results from patent US20260285850A1, “SUBSTITUTED OXAZOLIDINONES AND IMIDAZOLINONES AS HERBICIDES” (FMC CORPORATION, priority 2023, published 2026).
# What was measured:
# Type in all cases: in vivo
# [1] = test system: sedge, umbrella (small-flower umbrella sedge, Cyperus difformis); assay: Test B flooded paddy test, visual plant response rating 0-100; settings: 250 g ai/ha, Flood, applied to paddy water, evaluated after 13 days
# Procedure, shortened: (§1)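 Treatment occurs at the 2-leaf stage by adding compound to floodwater standing 3 cm above the soil, a level kept for the whole test. Plants stay in the greenhouse 13 days before visual comparison with controls.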
# [2] = test system: ducksalad (Heteranthera limosa); assay: as above; settings: 250 g ai/ha, Flood, applied to paddy water, evaluated after 13 days
# Procedure, shortened: as §1
# [3] = test system: barnyardgrass (Echinochloa crusgalli); assay: as above; settings: 250 g ai/ha, Flood, applied to paddy water, evaluated after 13 days
# Procedure, shortened: as §1
# rice (Oryza sativa) = assay: as above; settings: 250 g ai/ha, Flood, applied to paddy water, evaluated after 13 days
# Procedure, shortened: as §1
# [4] = test system: blackgrass (Alopecurus myosuroides); assay: Test A postemergence application, visual injury rating 0-100; settings: for Blackgrass plant response rating (0 to 100 scale): Postemergence, 16 g ai/ha, greenhouse 10 days, 0 no effect, 100 complete control
# Procedure, shortened: (§2)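 Visual injury, scored 0-100 (100 = complete control) against untreated plants, 10 days after greenhouse treatment. Test chemicals in surfactant-containing non-phytotoxic solvent were applied in loam soil and sand, as a preemergence soil spray on seeds or postemergence to plants at the one- to two-leaf stage.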
# [5] = test system: barnyardgrass (Echinochloa crus-galli); assay: as above; settings: for Barnyardgrass plant response rating (0 to 100 scale): Postemergence, 16 g ai/ha, greenhouse 10 days, 0 no effect, 100 complete control
# Procedure, shortened: as §2
# kochia (Bassia scoparia) [6] = assay: as above; settings: for Kochia plant response rating (0 to 100 scale): Postemergence, 16 g ai/ha, greenhouse 10 days, 0 no effect, 100 complete control
# Procedure, shortened: as §2
# [7] = test system: ryegrass, Italian (italian ryegrass, Lolium multiflorum); assay: as above; settings: for Ryegrass, Italian plant response rating (0 to 100 scale): Postemergence, 16 g ai/ha, greenhouse 10 days, 0 no effect, 100 complete control
# Procedure, shortened: as §2
# [8] = test system: horseweed (Erigeron canadensis); assay: as above; settings: for Horseweed plant response rating (0 to 100 scale): Postemergence, 16 g ai/ha, greenhouse 10 days, 0 no effect, 100 complete control
# Procedure, shortened: as §2
# [9] = test system: ragweed (common ragweed, Ambrosia artemisiifolia); assay: as above; settings: for Ragweed plant response rating (0 to 100 scale): Postemergence, 16 g ai/ha, greenhouse 10 days, 0 no effect, 100 complete control
# Procedure, shortened: as §2
# [10] = test system: palmer (palmer amaranth, palmer pigweed, Amaranthus palmeri); assay: as above; settings: for Pigweed, Palmer plant response rating (0 to 100 scale): Postemergence, 16 g ai/ha, greenhouse 10 days, 0 no effect, 100 complete control
# Procedure, shortened: as §2
# soybean (Glycine max) [11] = assay: as above; settings: for Soybean plant response rating (0 to 100 scale): Postemergence, 16 g ai/ha, greenhouse 10 days, 0 no effect, 100 complete control
# Procedure, shortened: as §2
# [12] = test system: oat, wild (wild oat, Avena fatua); assay: as above; settings: for Oat, Wild plant response rating (0 to 100 scale): Postemergence, 16 g ai/ha, greenhouse 10 days, 0 no effect, 100 complete control
# Procedure, shortened: as §2
# [13] = test system: wheat (Triticum aestivum); assay: as above; settings: for Wheat plant response rating (0 to 100 scale): Postemergence, 16 g ai/ha, greenhouse 10 days, 0 no effect, 100 complete control
# Procedure, shortened: as §2
# [14] = test system: galium (catchweed bedstraw, Galium aparine); assay: as above; settings: for Galium plant response rating (0 to 100 scale): Postemergence, 16 g ai/ha, greenhouse 10 days, 0 no effect, 100 complete control
# Procedure, shortened: as §2
# [15] = test system: green foxtail (Setaria viridis); assay: as above; settings: for Foxtail, Green plant response rating (0 to 100 scale): Postemergence, 16 g ai/ha, greenhouse 10 days, 0 no effect, 100 complete control
# Procedure, shortened: as §2
# corn (Zea mays) [16] = assay: as above; settings: for Corn plant response rating (0 to 100 scale): Postemergence, 16 g ai/ha, greenhouse 10 days, 0 no effect, 100 complete control
# Procedure, shortened: as §2
# [17] = test system: blackgrass (Alopecurus myosuroides); assay: Test A preemergence soil spray, visual injury rating 0-100; settings: 10 days; for Blackgrass plant response rating: 16 g ai/ha, 0 to 100 scale
# Procedure, shortened: as §2
# [18] = test system: barnyardgrass (Echinochloa crus-galli); assay: as above; settings: 10 days; for Barnyardgrass plant response rating: 16 g ai/ha, 0 to 100 scale
# Procedure, shortened: as §2
# kochia (Bassia scoparia) [19] = assay: as above; settings: 10 days
# Procedure, shortened: as §2
# [20] = test system: ryegrass, Italian (italian ryegrass, Lolium multiflorum); assay: as above; settings: 10 days; for Ryegrass, Italian plant response rating: 16 g ai/ha, 0 to 100 scale
# Procedure, shortened: as §2
# [21] = test system: ragweed (common ragweed, Ambrosia artemisiifolia); assay: as above; settings: 10 days; for Ragweed plant response rating: 16 g ai/ha, 0 to 100 scale
# Procedure, shortened: as §2
# [22] = test system: palmer (palmer amaranth, palmer pigweed, Amaranthus palmeri); assay: as above; settings: 10 days; for Pigweed, Palmer plant response rating: 16 g ai/ha, 0 to 100 scale
# Procedure, shortened: as §2
# soybean (Glycine max) [23] = assay: as above; settings: 10 days; for Soybean plant response rating: 16 g ai/ha, 0 to 100 scale
# Procedure, shortened: as §2
# [24] = test system: oat, wild (wild oat, Avena fatua); assay: as above; settings: 10 days; for Oat, Wild plant response rating: 16 g ai/ha, 0 to 100 scale
# Procedure, shortened: as §2
# [25] = test system: wheat (Triticum aestivum); assay: as above; settings: 10 days; for Wheat plant response rating: 16 g ai/ha, 0 to 100 scale
# Procedure, shortened: as §2
# [26] = test system: green foxtail (Setaria viridis); assay: as above; settings: 10 days; for Foxtail, Green plant response rating: 16 g ai/ha, 0 to 100 scale
# Procedure, shortened: as §2
# corn (Zea mays) [27] = assay: as above; settings: 10 days; for Corn plant response rating: 16 g ai/ha, 0 to 100 scale
# Procedure, shortened: as §2
# [28] = 62 g ai/ha, postemergence, 10 days, 0 = no effect, 100 = complete control
# [29] = 62 g ai/ha, 0 = no effect, 100 = complete control
smiles,measurement,setting,value
CC(C)COC(=O)C1=CCC(NC(=O)C2(C)CN(c3cc(Cl)cc(Cl)c3)C(=O)O2)C1 (stereo not shown) [Compound 155],"Plant response rating, Sedge, Umbrella (0 to 100 scale, 0 is no effect and 100 is complete control)",[1],0
same,"Plant response rating, Ducksalad (0 to 100 scale, 0 is no effect and 100 is complete control)",[2],0
same,"Plant response rating, Barnyardgrass (0 to 100 scale, 0 is no effect and 100 is complete control)",[3],0
same,"Plant response rating, Rice (0 to 100 scale, 0 is no effect and 100 is complete control)",rice (Oryza sativa),0
same,Blackgrass plant response rating (0-100),[4]; [28],0
same,Blackgrass plant response rating (0 to 100 scale),[4],0
same,Barnyardgrass plant response rating (0-100),[5]; [28],10
same,Barnyardgrass plant response rating (0 to 100 scale),[5],0
same,Kochia plant response rating (0-100),kochia (Bassia scoparia) [6]; [28],40
same,Kochia plant response rating (0 to 100 scale),kochia (Bassia scoparia) [6],0
same,"Ryegrass, Italian plant response rating (0-100)",[7]; [28],0
same,"Ryegrass, Italian plant response rating (0 to 100 scale)",[7],0
same,Horseweed plant response rating (0-100),[8]; [28],0
same,Horseweed plant response rating (0 to 100 scale),[8],0
same,Ragweed plant response rating (0-100),[9]; [28],30
same,Ragweed plant response rating (0 to 100 scale),[9],0
same,"Pigweed, Palmer plant response rating (0-100)",[10]; [28],0
same,"Pigweed, Palmer plant response rating (0 to 100 scale)",[10],0
same,Soybean plant response rating (0-100),soybean (Glycine max) [11]; [28],20
same,Soybean plant response rating (0 to 100 scale),soybean (Glycine max) [11],0
same,"Oat, Wild plant response rating (0-100)",[12]; [28],0
same,"Oat, Wild plant response rating (0 to 100 scale)",[12],0
same,Wheat plant response rating (0-100),[13]; [28],0
same,Wheat plant response rating (0 to 100 scale),[13],0
same,Galium plant response rating (0-100),[14]; [28],70
same,Galium plant response rating (0 to 100 scale),[14],0
same,"Foxtail, Green plant response rating (0-100)",[15]; [28],20
same,"Foxtail, Green plant response rating (0 to 100 scale)",[15],0
same,Corn plant response rating (0-100),corn (Zea mays) [16]; [28],0
same,Corn plant response rating (0 to 100 scale),corn (Zea mays) [16],0
same,Blackgrass plant response rating,[17],0
same,Blackgrass plant response rating (0-100),[17]; [29],0
same,Barnyardgrass plant response rating,[18],0
same,Barnyardgrass plant response rating (0-100),[18]; [29],10
same,Kochia plant response rating (0-100),kochia (Bassia scoparia) [19]; [29],20
same,"Ryegrass, Italian plant response rating",[20],0
same,"Ryegrass, Italian plant response rating (0-100)",[20]; [29],0
same,Ragweed plant response rating,[21],0
same,Ragweed plant response rating (0-100),[21]; [29],0
same,"Pigweed, Palmer plant response rating",[22],0
same,"Pigweed, Palmer plant response rating (0-100)",[22]; [29],0
same,Soybean plant response rating,soybean (Glycine max) [23],0
same,Soybean plant response rating (0-100),soybean (Glycine max) [23]; [29],0
same,"Oat, Wild plant response rating",[24],0
same,"Oat, Wild plant response rating (0-100)",[24]; [29],0
same,Wheat plant response rating,[25],0
same,Wheat plant response rating (0-100),[25]; [29],10
same,"Foxtail, Green plant response rating",[26],30
same,"Foxtail, Green plant response rating (0-100)",[26]; [29],30
same,Corn plant response rating,corn (Zea mays) [27],0
same,Corn plant response rating (0-100),corn (Zea mays) [27]; [29],0
CC1(C(=O)NC2C=CC(C(=O)O)C2)CN(c2cc(F)c(F)c(F)c2)C(=O)O1 (stereo not shown) [Compound 123],"Plant response rating, Sedge, Umbrella (0 to 100 scale, 0 is no effect and 100 is complete control)",[1],0
same,"Plant response rating, Ducksalad (0 to 100 scale, 0 is no effect and 100 is complete control)",[2],55
same,"Plant response rating, Barnyardgrass (0 to 100 scale, 0 is no effect and 100 is complete control)",[3],0
same,"Plant response rating, Rice (0 to 100 scale, 0 is no effect and 100 is complete control)",rice (Oryza sativa),10
same,Blackgrass plant response rating (0 to 100 scale),[4],90
same,Barnyardgrass plant response rating (0 to 100 scale),[5],60
same,Kochia plant response rating (0 to 100 scale),kochia (Bassia scoparia) [6],0
same,"Ryegrass, Italian plant response rating (0 to 100 scale)",[7],60
same,Horseweed plant response rating (0 to 100 scale),[8],0
same,Ragweed plant response rating (0 to 100 scale),[9],0
same,"Pigweed, Palmer plant response rating (0 to 100 scale)",[10],20
same,Soybean plant response rating (0 to 100 scale),soybean (Glycine max) [11],60
same,"Oat, Wild plant response rating (0 to 100 scale)",[12],60
same,Wheat plant response rating (0 to 100 scale),[13],80
same,Galium plant response rating (0 to 100 scale),[14],30
same,"Foxtail, Green plant response rating (0 to 100 scale)",[15],30
same,Corn plant response rating (0 to 100 scale),corn (Zea mays) [16],70
same,Blackgrass plant response rating,[17],0
same,Barnyardgrass plant response rating,[18],0
same,Kochia plant response rating,"kochia (Bassia scoparia) [19]; 16 g ai/ha, 0 to 100 scale",0
same,"Ryegrass, Italian plant response rating",[20],0
same,Ragweed plant response rating,[21],0
same,"Pigweed, Palmer plant response rating",[22],0
same,Soybean plant response rating,soybean (Glycine max) [23],0
same,"Oat, Wild plant response rating",[24],10
same,Wheat plant response rating,[25],80
same,"Foxtail, Green plant response rating",[26],0
same,Corn plant response rating,corn (Zea mays) [27],0
